A word on the Kd: it is the concentration at which binding is half-saturated.

Our source for the Kd values is paper PMC7649837, “Protein–fragment complex structures derived by NMR molecular replacement” (RSC Medicinal Chemistry, 2020).

This assay deals with PIN1 (Homo sapiens, UniProt Q13526). Kind of assay: NMR methyl chemical shift perturbation titration; intermolecular NOEs and NMR2 complex structure. Format: binding.
PIN1, sequence (Q13526 whole entry): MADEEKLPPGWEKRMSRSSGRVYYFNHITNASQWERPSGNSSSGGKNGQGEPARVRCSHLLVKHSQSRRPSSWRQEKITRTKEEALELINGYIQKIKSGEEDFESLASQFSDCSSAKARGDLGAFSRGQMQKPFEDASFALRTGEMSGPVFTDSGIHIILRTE
With `Cc1nc(-c2cccc(Cl)c2)[nH]c1C(=O)O` [compound 2], the dissociation constant Kd was found to be 670 µM. With `Cc1cccc(-c2nc(C(=O)O)c(C)[nH]2)c1` [compound 1], the equilibrium dissociation constant (Kd) is 260 µM.

Turning to `Cc1nc(-c2cccc(C(F)(F)F)c2)[nH]c1C(=O)O` [compound 3], the Kd was 6700 µM.
